This passage reports EC50 results from patent US12139520B2 (priority 2020, dated 2024).

Each structure is given as a SMILES string. Bridge positions count the residues as written; N and C are the ends. Square brackets hold non-standard residues; d marks the D form. Peptide text beside a SMILES is read from it. Hyp = O=C(O)[C@@H]1C[C@@H](O)CN1

In this test the target is T1, hAMY3 receptor (Homo sapiens, UniProt O60896+P30988).
T1 sequence (P30988 25-474): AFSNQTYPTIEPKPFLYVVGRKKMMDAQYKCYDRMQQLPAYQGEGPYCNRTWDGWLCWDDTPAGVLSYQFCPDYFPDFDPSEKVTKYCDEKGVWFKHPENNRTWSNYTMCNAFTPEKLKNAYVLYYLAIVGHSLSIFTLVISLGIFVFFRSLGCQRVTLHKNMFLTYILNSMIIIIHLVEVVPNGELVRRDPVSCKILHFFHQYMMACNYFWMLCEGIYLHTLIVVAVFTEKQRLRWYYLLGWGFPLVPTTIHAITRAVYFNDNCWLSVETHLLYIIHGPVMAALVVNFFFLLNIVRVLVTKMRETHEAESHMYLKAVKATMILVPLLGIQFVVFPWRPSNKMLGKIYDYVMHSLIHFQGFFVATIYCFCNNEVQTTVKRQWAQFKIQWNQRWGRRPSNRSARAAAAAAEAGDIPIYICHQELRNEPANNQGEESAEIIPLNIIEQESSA
T1 sequence (O60896 24-148 partner): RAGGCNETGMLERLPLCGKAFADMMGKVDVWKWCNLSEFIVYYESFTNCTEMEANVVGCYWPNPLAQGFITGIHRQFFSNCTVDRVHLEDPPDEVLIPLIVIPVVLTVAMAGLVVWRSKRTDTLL
In words: cAMP assay for in vitro receptor activation, hAMY3-R. The test is classed as cell-based. The note with it: cAMP assay, hAMY3 receptor; read-out: hAMY3R EC50. The procedure, abridged:
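Stable hAMY3 cells; DPBS + 0.05% casein + 0.5 mM IBMX; graded compound doses, 30 min, RT; cAMP via HTRF Gs kit, TR-FRET read at 1 h.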
Take `CC[C@H](C)[C@H](NC(=O)[C@H](C)NC(=O)CNC(=O)[C@H](CC(=O)O)NC(=O)[C@H](CCCCN)NC(=O)[C@H](CC(=O)O)NC(=O)[C@@H](NC(=O)[C@H](Cc1ccccc1)NC(=O)[C@H](CCC(N)=O)NC(=O)[C@H](Cc1ccc(O)cc1)NC(=O)[C@H](CC(C)C)NC(=O)[C@H](Cc1ccccc1)NC(=O)[C@H](Cc1c[nH]cn1)NC(=O)[C@H](C)NC(=O)[C@H](CC(C)C)NC(=O)[C@H](CCCNC(=N)N)NC(=O)[C@H](CCC(N)=O)NC(=O)[C@@H](NC(=O)[C@@H](NC(=O)[C@@H]1CSSC[C@H](NC(=O)CN)C(=O)N[C@@H](CCCNC(=N)N)C(=O)N[C@@H](Cc2ccccc2)C(=O)NCC(=O)N[C@@H]([C@@H](C)O)C(=O)N1)[C@@H](C)O)C(C)C)[C@@H](C)O)C(=O)N[C@@H](C)C(=O)N1CCC[C@H]1C(=O)N[C@@H](CCCNC(=N)N)C(=O)N[C@H](C(=O)N[C@@H](CCCCN)C(=O)N[C@H](C(=O)NCC(=O)N[C@@H](CO)C(=O)N[C@@H](CCC(N)=O)C(=O)NCC(=O)N[C@@H](Cc1ccc(O)cc1)C(N)=O)[C@@H](C)CC)[C@@H](C)O` [compound 123] (H-GCRFGTCTVQRLAHFLYQFTDKDGAIAPRTKIGSQGY-NH2; disulfide 2-7; N-terminus assumed): the EC50 is 27 pM. Turning to `CC[C@H](C)[C@H](NC(=O)[C@H](CC(N)=O)NC(=O)[C@@H](NC(=O)[C@H](CCCNC(=N)N)NC(=O)[C@@H]1CCCN1C(=O)[C@H](C)NC(=O)[C@@H](NC(=O)[C@H](CC(N)=O)NC(=O)[C@H](CC(=O)O)NC(=O)[C@H](CCCCN)NC(=O)[C@H](CC(=O)O)NC(=O)[C@H](CCCCN)NC(=O)[C@H](CC(=O)O)NC(=O)[C@@H](NC(=O)[C@H](Cc1ccccc1)NC(=O)[C@H](CCC(N)=O)NC(=O)[C@H](Cc1ccc(O)cc1)NC(=O)[C@@H](NC(=O)[C@H](CCC(N)=O)NC(=O)[C@H](Cc1c[nH]cn1)NC(=O)[C@H](C)NC(=O)[C@H](CC(C)C)NC(=O)[C@H](CCCNC(=N)N)NC(=O)[C@H](CCC(N)=O)NC(=O)[C@@H](NC(=O)[C@@H](NC(=O)[C@@H]1CSSC[C@H](NC(=O)CN)C(=O)N[C@@H](CCCNC(=N)N)C(=O)N[C@@H]([C@@H](C)O)C(=O)NCC(=O)N[C@@H]([C@@H](C)O)C(=O)N1)[C@@H](C)O)C(C)C)[C@@H](C)CC)[C@@H](C)O)C(C)C)[C@@H](C)O)C(=O)NCC(=O)N1CCC[C@H]1C(=O)N[C@@H](CC(N)=O)C(=O)NCC(=O)N[C@@H](Cc1ccc(O)cc1)C(N)=O` [compound 142] (H-GCRTGTCTVQRLAHQIYQFTDKDKDNVAPRTNIGPNGY-NH2; disulfide 2-7; N-terminus assumed), the EC50 came out at 36 pM.

As to `CC[C@H](C)[C@H](NC(=O)[C@H](CC(N)=O)NC(=O)[C@H](CO)NC(=O)[C@H](CCCNC(=N)N)NC(=O)[C@@H]1CCCN1C(=O)[C@H](C)NC(=O)[C@@H](NC(=O)[C@H](CC(N)=O)NC(=O)[C@H](CC(=O)O)NC(=O)[C@H](CCCCN)NC(=O)[C@H](CC(=O)O)NC(=O)[C@H](CCCCN)NC(=O)[C@H](CC(=O)O)NC(=O)[C@@H](NC(=O)[C@H](Cc1ccccc1)NC(=O)[C@H](CCC(N)=O)NC(=O)[C@H](Cc1ccc(O)cc1)NC(=O)[C@@H](NC(=O)[C@H](CCC(N)=O)NC(=O)[C@H](Cc1c[nH]cn1)NC(=O)[C@H](C)NC(=O)[C@H](CC(C)C)NC(=O)[C@H](CCCNC(=N)N)NC(=O)[C@H](CCC(N)=O)NC(=O)[C@@H](NC(=O)[C@@H](NC(=O)[C@@H]1CSSC[C@H](NC(=O)CN)C(=O)N[C@@H](CCCNC(=N)N)C(=O)N[C@@H]([C@@H](C)O)C(=O)NCC(=O)N[C@@H]([C@@H](C)O)C(=O)N1)[C@@H](C)O)C(C)C)[C@@H](C)CC)[C@@H](C)O)C(C)C)C(=O)NCC(=O)N1CCC[C@H]1C(=O)N[C@@H](CC(N)=O)C(=O)NCC(=O)N1C[C@H](O)C[C@H]1C(N)=O` [compound 151] (H-GCRTGTCTVQRLAHQIYQFTDKDKDNVAPRSNIGPNG[Hyp]-NH2; disulfide 2-7; N-terminus assumed), the EC50 came out at 41 pM. In the case of `CC[C@H](C)[C@H](NC(=O)[C@H](CCCCN)NC(=O)[C@H](CO)NC(=O)[C@H](CCCNC(=N)N)NC(=O)[C@@H]1CCCN1C(=O)[C@H](C)NC(=O)[C@@H](NC(=O)[C@H](CC(N)=O)NC(=O)[C@H](CC(=O)O)NC(=O)[C@H](CCCCN)NC(=O)[C@H](CC(=O)O)NC(=O)[C@H](CCCCN)NC(=O)[C@H](CC(=O)O)NC(=O)[C@@H](NC(=O)[C@H](Cc1ccccc1)NC(=O)[C@H](CCC(N)=O)NC(=O)[C@H](Cc1ccc(O)cc1)NC(=O)[C@@H](NC(=O)[C@H](CCC(N)=O)NC(=O)[C@H](Cc1c[nH]cn1)NC(=O)[C@H](C)NC(=O)[C@H](CC(C)C)NC(=O)[C@H](CCCNC(=N)N)NC(=O)[C@H](CCC(N)=O)NC(=O)[C@@H](NC(=O)[C@@H](NC(=O)[C@@H]1CSSC[C@H](NC(=O)CN)C(=O)N[C@@H](CCCNC(=N)N)C(=O)N[C@@H]([C@@H](C)O)C(=O)NCC(=O)N[C@@H]([C@@H](C)O)C(=O)N1)[C@@H](C)O)C(C)C)[C@@H](C)CC)[C@@H](C)O)C(C)C)C(=O)NCC(=O)N1CCC[C@H]1C(=O)N[C@@H](CC(N)=O)C(=O)NCC(=O)N1C[C@H](O)C[C@H]1C(N)=O` [compound 157] (H-GCRTGTCTVQRLAHQIYQFTDKDKDNVAPRSKIGPNG[Hyp]-NH2; disulfide 2-7; N-terminus assumed), the EC50 amounted to 47 pM.

Regarding `CC[C@H](C)[C@H](NC(=O)[C@H](CCC(N)=O)NC(=O)[C@H](Cc1c[nH]cn1)NC(=O)[C@H](C)NC(=O)[C@H](CC(C)C)NC(=O)[C@H](CCCNC(=N)N)NC(=O)[C@H](CCC(N)=O)NC(=O)[C@@H](NC(=O)[C@@H](NC(=O)[C@@H]1CSSC[C@H](NC(=O)CN)C(=O)N[C@@H](CCCNC(=N)N)C(=O)N[C@@H](Cc2ccccc2)C(=O)NCC(=O)N[C@@H]([C@@H](C)O)C(=O)N1)[C@@H](C)O)C(C)C)C(=O)N[C@@H](Cc1ccc(O)cc1)C(=O)N[C@@H](CCC(N)=O)C(=O)N[C@@H](Cc1ccccc1)C(=O)N[C@H](C(=O)N[C@@H](CC(=O)O)C(=O)N[C@@H](CCCCN)C(=O)N[C@@H](CC(=O)O)C(=O)N[C@@H](CCCCN)C(=O)N[C@@H](CC(=O)O)C(=O)N[C@@H](CC(N)=O)C(=O)N[C@H](C(=O)N[C@@H](C)C(=O)N1CCC[C@H]1C(=O)N[C@@H](CCCNC(=N)N)C(=O)N[C@@H](CO)C(=O)N[C@@H](CCCCN)C(=O)N[C@H](C(=O)N[C@@H](CO)C(=O)N1CCC[C@H]1C(=O)N[C@@H](CCC(N)=O)C(=O)NCC(=O)N1C[C@H](O)C[C@H]1C(N)=O)[C@@H](C)CC)C(C)C)[C@@H](C)O` [compound 169] (H-GCRFGTCTVQRLAHQIYQFTDKDKDNVAPRSKISPQG[Hyp]-NH2; disulfide 2-7; N-terminus assumed), the EC50 was determined as 63 pM.

As to `CC[C@H](C)[C@H](NC(=O)[C@H](CCC(N)=O)NC(=O)[C@H](Cc1c[nH]cn1)NC(=O)[C@H](C)NC(=O)[C@H](CC(C)C)NC(=O)[C@H](CCCNC(=N)N)NC(=O)[C@H](CCC(N)=O)NC(=O)[C@@H](NC(=O)[C@@H](NC(=O)[C@@H]1CSSC[C@H](NC(=O)CN)C(=O)N[C@@H](CCCNC(=N)N)C(=O)N[C@@H](Cc2ccccc2)C(=O)NCC(=O)N[C@@H]([C@@H](C)O)C(=O)N1)[C@@H](C)O)C(C)C)C(=O)N[C@@H](Cc1ccc(O)cc1)C(=O)N[C@@H](CCC(N)=O)C(=O)N[C@@H](Cc1ccccc1)C(=O)N[C@H](C(=O)N[C@@H](CC(=O)O)C(=O)N[C@@H](CCCCN)C(=O)N[C@@H](CC(=O)O)C(=O)N[C@@H](CCCCN)C(=O)N[C@@H](CC(=O)O)C(=O)N[C@@H](CC(N)=O)C(=O)N[C@H](C(=O)N[C@@H](C)C(=O)N1CCC[C@H]1C(=O)N[C@@H](CCCNC(=N)N)C(=O)N[C@@H](CO)C(=O)N[C@@H](CCCCN)C(=O)N[C@H](C(=O)N[C@@H](CO)C(=O)N1CCC[C@H]1C(=O)N[C@@H](CCC(N)=O)C(=O)NCC(=O)N[C@@H](Cc1ccc(O)cc1)C(N)=O)C(C)C)C(C)C)[C@@H](C)O` [compound 174] (H-GCRFGTCTVQRLAHQIYQFTDKDKDNVAPRSKVSPQGY-NH2; disulfide 2-7; N-terminus assumed), the EC50 is 71 pM. For the compound `CC[C@H](C)[C@H](NC(=O)[C@H](CCCCN)NC(=O)[C@H](CO)NC(=O)[C@H](CCCNC(=N)N)NC(=O)[C@@H]1CCCN1C(=O)[C@H](C)NC(=O)[C@@H](NC(=O)[C@H](CC(N)=O)NC(=O)[C@H](CC(=O)O)NC(=O)[C@H](CCCCN)NC(=O)[C@H](CC(=O)O)NC(=O)[C@H](CCCCN)NC(=O)[C@H](CC(=O)O)NC(=O)[C@@H](NC(=O)[C@H](Cc1ccccc1)NC(=O)[C@H](CCC(N)=O)NC(=O)[C@H](Cc1ccc(O)cc1)NC(=O)[C@@H](NC(=O)[C@H](CCC(N)=O)NC(=O)[C@H](Cc1c[nH]cn1)NC(=O)[C@H](C)NC(=O)[C@H](CC(C)C)NC(=O)[C@H](CCCNC(=N)N)NC(=O)[C@H](CCC(N)=O)NC(=O)[C@@H](NC(=O)[C@@H](NC(=O)[C@@H]1CSSC[C@H](NC(=O)CN)C(=O)N[C@@H](CCCNC(=N)N)C(=O)N[C@@H]([C@@H](C)O)C(=O)NCC(=O)N[C@@H]([C@@H](C)O)C(=O)N1)[C@@H](C)O)C(C)C)[C@@H](C)CC)[C@@H](C)O)C(C)C)C(=O)NCC(=O)N1CCC[C@H]1C(=O)N[C@@H](CCC(N)=O)C(=O)NCC(=O)N1C[C@H](O)C[C@H]1C(N)=O` [compound 179] (H-GCRTGTCTVQRLAHQIYQFTDKDKDNVAPRSKIGPQG[Hyp]-NH2; disulfide 2-7), the EC50 stood at 82 pM.

As usually defined, the EC50 is the concentration needed to bring the measured effect to its halfway point.
